SMILES strings stand for the structures. Structures can show the parent of a compound that is named as a salt. Where two headings read alike, the source gives them in different places. Where only a bound is given, the exact number is not on record here.

Here are results for 17 compounds from patent US10881653B2, “Tricyclic compounds and their use in the treatment of cancer” (The United States of America, as represented by the …, priority 2015, dated 2021).

Test [1] has as its target T1, recombinant thioredoxin reductase 1 (TrxR1) (Homo sapiens, UniProt Q16881).
T1 sequence (Q16881 1-649): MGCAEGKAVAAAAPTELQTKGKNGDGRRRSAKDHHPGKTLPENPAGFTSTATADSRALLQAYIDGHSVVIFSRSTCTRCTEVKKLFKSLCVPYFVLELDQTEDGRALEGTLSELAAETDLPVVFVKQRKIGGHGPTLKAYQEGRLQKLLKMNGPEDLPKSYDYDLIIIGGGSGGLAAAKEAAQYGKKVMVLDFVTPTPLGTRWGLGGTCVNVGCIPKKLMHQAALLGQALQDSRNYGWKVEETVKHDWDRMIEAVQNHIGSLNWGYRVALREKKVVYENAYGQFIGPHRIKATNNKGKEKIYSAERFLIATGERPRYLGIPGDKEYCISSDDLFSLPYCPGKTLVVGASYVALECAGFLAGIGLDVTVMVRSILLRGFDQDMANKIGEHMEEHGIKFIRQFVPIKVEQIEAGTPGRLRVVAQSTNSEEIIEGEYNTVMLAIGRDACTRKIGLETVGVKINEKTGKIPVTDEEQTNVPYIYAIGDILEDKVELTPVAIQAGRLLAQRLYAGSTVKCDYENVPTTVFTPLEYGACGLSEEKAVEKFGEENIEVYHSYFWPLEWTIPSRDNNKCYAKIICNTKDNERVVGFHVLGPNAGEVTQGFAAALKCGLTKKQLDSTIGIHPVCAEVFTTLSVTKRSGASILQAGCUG
As to the kind of experiment: Inhibition of recombinant TrxR1 (DTNB assay). The test is classed as biochemical. On the procedure:
(§1) Small molecule inhibition of recombinant thioredoxin reductase 1 (TrxR1) and gluthathione reductase (GR) was examined in 96-well plate format. 15 nM TrxR1 was incubated in the presence of 250 μM NADPH, 0.1 mg/ml BSA, and various concentrations of the compound of Example 1 (1% DMSO final) in 50 mM Tris (pH 7.5) and 2 mM EDTA buffer for 15 minutes. Following the incubation period, 2.5 mM DTNB was added to each well and the change in O.D. at 412 nm was followed. Percent activity was determined using DMSO vehicle and no TrxR1 (blank) controls. 2 nM GR was incubated in the presence of 250 μM NADPH, 0.1 mg/ml BSA, and various concentrations of compounds (1% DMSO final) in 50 mM Tris (pH 7.5) and 2 mM EDTA buffer for 15 minutes. Following the incubation period, 1 mM GSSG was added to each well and the change in O.D. at 340 nm was followed. Percent activity was determined using DMSO vehicle and no GR (blank) controls.

Test [2] has as its target T2, gluthathione reductase (GR) (Homo sapiens, UniProt P00390).
T2 sequence (P00390 44-522): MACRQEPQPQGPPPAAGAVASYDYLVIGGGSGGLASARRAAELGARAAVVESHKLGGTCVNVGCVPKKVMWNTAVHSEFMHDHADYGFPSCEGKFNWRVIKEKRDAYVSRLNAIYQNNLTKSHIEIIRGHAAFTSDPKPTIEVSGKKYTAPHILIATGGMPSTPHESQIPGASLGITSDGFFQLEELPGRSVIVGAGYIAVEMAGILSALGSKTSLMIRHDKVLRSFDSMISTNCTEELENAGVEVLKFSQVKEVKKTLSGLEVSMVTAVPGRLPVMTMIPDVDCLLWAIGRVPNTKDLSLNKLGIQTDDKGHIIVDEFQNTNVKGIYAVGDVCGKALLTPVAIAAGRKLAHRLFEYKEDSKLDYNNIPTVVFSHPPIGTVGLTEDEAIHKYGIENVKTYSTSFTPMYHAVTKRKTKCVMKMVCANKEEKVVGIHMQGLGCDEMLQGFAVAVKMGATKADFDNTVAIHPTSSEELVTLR
The experiment in a line: Inhibition of recombinant GR (GSSG assay). The test is classed as biochemical. On the procedure:
as §1

[3] abbreviates: Biological Example 4, assays of Biological Example 1, read-out: TrxR Inhibition.
Where [4] appears, read: Biological Example 4, assays of Biological Example 1.
The mark [5] stands for this setting: Biological Example 1, 15 nM TrxR1, 250 μM NADPH, 15 minutes incubation, read-out: TrxR inhibition.
The mark [6] stands for this setting: Biological Example 1, 2 nM GR, 250 μM NADPH, 15 minutes incubation.

As to `CN1C(=O)[C@@H]2[C@H](C1=O)[C@H]1C(=O)C=C[C@@H]2N1Cc1ccccc1` (relative stereo) [Example 51, exo-11-Benzyl-4-methyl-4,11-diazatricyclo[5.3.1.0^2,6]undec-9-ene-3,5,8-trione Trifluoroacetate], the results for the IC50 in test [1] (setting [3]) and in test [2] (setting [4]) were 4.61 µM and above 100 µM, respectively.

As to `Cc1cccc(CN2[C@@H]3C(=O)C=C[C@H]2[C@@H]2C(=O)N(C)C(=O)[C@@H]23)c1` (relative stereo) [Example 53, exo-4-Methyl-11-(3-methylbenzyl)-4,11-diazatricyclo[5.3.1.0^2,6]undec-9-ene-3,5,8-trione Trifluoroacetate], the IC50 in test [1] (setting [3]) was 3.26 µM; in test [2] (setting [4]), above 100 µM.

For the compound `O=C1C=C[C@H]2[C@@H]3C(=O)N(c4ccc(O)cc4)C(=O)[C@@H]3[C@@H]1N2Cc1ccccc1` (relative stereo) [Example 54, exo-11-Benzyl-4-(4-hydroxyphenyl)-4,11-diazatricyclo[5.3.1.0^2,6]undec-9-ene-3,5,8-trione Trifluoroacetate], the IC50 in test [1] (setting [3]) is 1.8 µM; in test [2] (setting [4]) it was above 100 µM.

As to `Cc1cccc(CN2[C@@H]3C(=O)C=C[C@H]2[C@@H]2C(=O)N(c4ccc(O)cc4)C(=O)[C@@H]23)c1` (relative stereo) [Example 55, exo-4-(4-Hydroxyphenyl)-11-(3-methylbenzyl)-4,11-diazatricyclo[5.3.1.0^2,6]-undec-9-ene-3,5,8-trione Trifluoroacetate], the values for the IC50 in test [1] (setting [3]) and in test [2] (setting [4]) were 1.64 µM and above 100 µM, respectively.

Turning to `Cc1cccc(CN2[C@@H]3C(=O)C=C[C@H]2[C@@H]2C(=O)N(c4ccccc4O)C(=O)[C@@H]23)c1` (relative stereo) [Example 56, exo-4-(2-Hydroxyphenyl)-11-(3-methylbenzyl)-4,11-diazatricyclo[5.3.1.0^2,6]-undec-9-ene-3,5,8-trione Trifluoroacetate], the IC50 in test [1] (setting [3]) is 1.44 µM; in test [2] (setting [4]), above 100 µM.

Turning to `Cc1cccc(CN2[C@@H]3C(=O)C=C[C@H]2[C@@H]2C(=O)N(c4cccc(O)c4)C(=O)[C@@H]23)c1` (relative stereo) [Example 58, exo-4-(3-Hydroxyphenyl)-11-(3-methylbenzyl)-4,11-diazatricyclo[5.3.1.0^2,6]undec-9-ene-3,5,8-trione Trifluoroacetate], the IC50 in test [1] (setting [5]) is 0.75 µM; in test [1] (setting [3]), 1.3 µM; in test [2] (setting [6]), above 100 µM; in test [2] (setting [4]) it was above 100 µM.

In the case of `CCc1ccc(N2C(=O)[C@@H]3[C@H](C2=O)[C@H]2C(=O)C=C[C@@H]3N2Cc2cccc(C)c2)cc1` (relative stereo) [Example 59, exo-4-(4-Ethylphenyl)-11-(3-methylbenzyl)-4,11-diazatricyclo[5.3.1.0^2,6]-undec-9-ene-3,5,8-trione Trifluoroacetate], the IC50 in test [1] (setting [3]) is 1.63 µM; in test [2] (setting [4]) it was above 100 µM.

Turning to `CCN1C(=O)[C@@H]2[C@H](C1=O)[C@H]1C(=O)C=C[C@@H]2N1C` (relative stereo) [Example 61, exo-4-Ethyl-11-methyl-4,11-diazatricyclo[5.3.1.0^2,6]undec-9-ene-3,5,8-trione Trifluoroacetate], the figures for the IC50 in test [1] (setting [3]) and in test [2] (setting [4]) were 23.4 µM and above 100 µM, respectively.

As for `Cc1cccc(CN2[C@@H]3C(=O)C=C[C@H]2[C@@H]2C(=O)N(c4cccc(Br)c4)C(=O)[C@@H]23)c1` (relative stereo) [Example 62, exo-4-(3-Bromophenyl)-11-(3-methylbenzyl)-4,11-diazatricyclo[5.3.1.0^2,6]-undec-9-ene-3,5,8-trione Trifluoroacetate], the results for the IC50 in test [1] (setting [3]) and in test [2] (setting [4]) were 1.23 µM and above 100 µM, respectively.

Turning to `Cc1cccc(CN2[C@@H]3C(=O)C=C[C@H]2[C@@H]2C(=O)N(c4cccc(N5CCCCC5)c4)C(=O)[C@@H]23)c1` (relative stereo) [Example 63, exo-11-(3-Methylbenzyl)-4-(3-(piperidin-1-yl)phenyl)-4,11-diazatricyclo-[5.3.1.0^2,6]undec-9-ene-3,5,8-trione Trifluoroacetate], the IC50 in test [1] (setting [3]) is 1.58 µM; in test [2] (setting [4]), above 100 µM.

Turning to `Cc1cccc(CN2[C@@H]3C(=O)C=C[C@H]2[C@@H]2C(=O)N(c4c(C)cccc4C)C(=O)[C@@H]23)c1` (relative stereo) [Example 65, exo 4-(2,6-Dimethylphenyl)-11-(3-methylbenzyl)-4,11-diazatricyclo-[5.3.1.0^2,6]undec-9-ene-3,5,8-trione Trifluoroacetate], the IC50 in test [1] (setting [5]) is 4.52 µM; in test [1] (setting [3]), 5.3 µM; in test [2] (setting [6]), above 100 µM; in test [2] (setting [4]), above 100 µM.

Consider `Cc1cccc(CN2[C@@H]3C(=O)C=C[C@H]2[C@@H]2C(=O)N(c4ccc(Br)cc4)C(=O)[C@@H]23)c1` (relative stereo) [Example 66, exo-4-(4-Bromophenyl)-11-(3-methylbenzyl)-4,11-diazatricyclo[5.3.1.0^2,6]-undec-9-ene-3,5,8-trione Trifluoroacetate], for which the IC50 in test [1] (setting [3]) was 1.43 µM; in test [2] (setting [4]), above 100 µM.

`NS(=O)(=O)c1cccc(CN2[C@@H]3C(=O)C=C[C@H]2[C@@H]2C(=O)N(c4ccccc4)C(=O)[C@@H]23)c1` (relative stereo) [Example 67, exo-3-((3,5,10-Trioxo-4-phenyl-4,11-diazatricyclo[5.3.1.0^2,6]undec-8-en-11-yl)methyl)benzenesulfonamide Trifluoroacetate]: the IC50 is 1.31 µM in test [1] (setting [5]), 1.99 µM in test [1] (setting [3]), above 100 µM in test [2] (setting [6]) and above 100 µM in test [2] (setting [4]).

For the compound `CS(=O)(=O)c1cccc(CN2[C@@H]3C(=O)C=C[C@H]2[C@@H]2C(=O)N(c4ccccc4)C(=O)[C@@H]23)c1` (relative stereo) [Example 68, exo-11-(3-(Methylsulfonyl)benzyl)-4-phenyl-4,11-diazatricyclo[5.3.1.0^2,6]-undec-9-ene-3,5,8-trione Trifluoroacetate], the IC50 in test [1] (setting [5]) was 1.88 µM; in test [1] (setting [3]), 2.24 µM; in test [2] (setting [6]), above 100 µM; in test [2] (setting [4]) it was above 100 µM.

As for `Cc1cccc(CN2[C@@H]3C(=O)C=C[C@H]2[C@@H]2C(=O)N(c4cccc(N5CCOCC5)c4)C(=O)[C@@H]23)c1` (relative stereo) [Example 70, exo-11-(3-Methylbenzyl)-4-(3-(4-morpholino)phenyl)-4,11-diazatricyclo-[5.3.1.0^2,6]undec-9-ene-3,5,8-trione Trifluoroacetate], the IC50 was 2.26 µM in test [1] (setting [5]), 2.62 µM in test [1] (setting [3]), above 100 µM in test [2] (setting [6]) and above 100 µM in test [2] (setting [4]).

As for `CC(=O)Nc1ccc(N2C(=O)[C@@H]3[C@H](C2=O)[C@H]2C(=O)C=C[C@@H]3N2Cc2cccc(C)c2)cc1` (stereo in doubt) [Example 57, N-(4-(11-(3-Methylbenzyl)-3,5,10-trioxo-4,11-diazatricyclo[5.3.1.0^2,6]undec-8-en-4-yl)phenyl)acetamide Trifluoroacetate], the IC50 was 3.04 µM in test [1] (setting [3]) and above 100 µM in test [2] (setting [4]).

For the compound `CC(c1ccccc1)N1C2C=CC(=O)C1C1C(=O)N(c3ccccc3)C(=O)C12` (centres unmarked) [Example 5, 4-Phenyl-11-(1-phenylethyl)-4,11-diazatricyclo[5.3.1.0^2,6]undec-9-ene-3,5,8-trione Trifluoroacetate], the IC50 was 2.49 µM in test [1] (setting [3]) and above 100 µM in test [2] (setting [4]).
